In patent US20050070510A1, “Substituted tetracycline compounds as synergistic antifungal agents” (Paratek Pharmaceuticals, Inc., priority 2001, published 2005):

Each compound was assayed on COS-1 cells (assay: In vitro mammalian cytotoxicity assay (Resazurin)).

Q: `Cc1ccc(CCc2ccc(O)c3c2CC2CC4[C@H](N(C)C)C(O)=C(C(N)=O)C(=O)[C@@]4(O)C(O)=C2C3=O)cc1` (stereo partly drawn) [Compound HG] was tested. Which “In Vitro Cytotoxicity” value did it give?
A: ** (toxicities less than 25 μg/mL are represented by **)

Q: `CC(=O)c1ccc(-c2cc(N(C)C)c3c(c2O)C(=O)C2=C(O)[C@]4(C#N)C(=O)C(C(N)=O)=C(O)[C@@H](N(C)C)[C@]4(N)C[C@]2(N)C3)cc1` [Compound HJ, 9-(4′-Acetylphenyl) Minocycline] was tested. Which “In Vitro Cytotoxicity” value did it give?
A: ** (toxicities less than 25 μg/mL are represented by **)

Q: Which “In Vitro Cytotoxicity” value does the source give for `CN(C)[C@@H]1C(O)=C(C(N)=O)C(=O)[C@@]2(C#N)C(O)=C3C(=O)c4c(O)ccc(C#CCCCCC#Cc5ccc(O)c6c5C[C@@]5(N)C[C@@]7(N)[C@H](N(C)C)C(O)=C(C(N)=O)C(=O)[C@@]7(C#N)C(O)=C5C6=O)c4C[C@@]3(N)C[C@@]12N` [Compound NB, 1,8-Di-7-Sancyclinyl-1,8-Heptyne] here?
A: * (toxicities greater than >25 μg/ml are represented by *)

Q: How did the “In Vitro Cytotoxicity” value turn out when `COC(=O)c1cc(N(C)C)c2c(c1O)C(=O)C1=C(O)[C@]3(C#N)C(=O)C(C(N)=O)=C(O)[C@@H](N(C)C)[C@]3(N)C[C@]1(N)C2` [Compound TC, 9-Minocycline methyl ester] was run?
A: * (toxicities greater than >25 μg/ml are represented by *)

Q: How did the “In Vitro Cytotoxicity” value turn out when `CN(C)c1cc(-c2ccc(CN3CCN(CCO)CC3)o2)c(O)c2c1C[C@H]1C[C@H]3[C@H](N(C)C)C(O)=C(C(N)=O)C(=O)[C@@]3(O)C(O)=C1C2=O` [Compound UC, 2-[4-(5-Minocyclin-9-yl-furan-2-ylmethyl)-piperazin-1-yl]-ethanol] was run?
A: * (toxicities greater than >25 μg/ml are represented by *)

Q: Which “In Vitro Cytotoxicity” value does the source give for `CN(C)[C@@H]1C(O)=C(C(=O)NC(C)(C)C)C(=O)[C@@]2(C#N)C(O)=C3C(=O)c4c(O)cccc4C(N)[C@@]3(N)[C@H](O)[C@@]12N` (stereo partly drawn) [DA] here?
A: * (toxicities greater than >25 μg/ml are represented by *)

Q: How did the “In Vitro Cytotoxicity” value turn out when `CC(=O)O[C@H]1[C@@]2(N)C(=C(O)[C@]3(C#N)C(=O)C(C(N)=O)=C(O)[C@@H](N(C)C)[C@]13N)C(=O)c1c(ccc(N=[N+]=N)c1O)[C@@H]2N` [DB] was run?
A: ** (toxicities less than 25 μg/mL are represented by **)

Q: `CN(C)[C@@H]1C(O)=C(C(N)=O)C(=O)[C@@]2(C#N)C(O)=C3C(=O)c4c(ccc(NC=O)c4O)C(N)[C@@]3(N)[C@H](O)[C@@]12N` (stereo partly drawn) [DC] was tested. Which “In Vitro Cytotoxicity” value did it give?
A: ** (toxicities less than 25 μg/mL are represented by **)

Q: How did the “In Vitro Cytotoxicity” value turn out when `CN(C)[C@@H]1C(O)=C(C(N)=O)C(=O)[C@@]2(C#N)C(O)=C3C(=O)c4c(ccc(NC(=O)OCCBr)c4O)[C@H](N)[C@@]3(N)[C@H](O)[C@@]12N` [DD] was run?
A: ** (toxicities less than 25 μg/mL are represented by **)

Q: For `CC(=O)c1ccc(/C=C2\c3cccc(O)c3C(=O)C3=C(O)[C@]4(C#N)C(=O)C(C(N)=O)=C(O)[C@@H](N(C)C)[C@]4(N)[C@@H](O)[C@@]32N)cc1` [DE], which “In Vitro Cytotoxicity” value is on record?
A: ** (toxicities less than 25 μg/mL are represented by **)

Q: `CCOc1ccc(/C=C2\c3cccc(O)c3C(=O)C3=C(O)[C@]4(C#N)C(=O)C(C(N)=O)=C(O)[C@@H](N(C)C)[C@]4(N)[C@@H](O)[C@@]32N)cc1` [DF] was tested. Which “In Vitro Cytotoxicity” value did it give?
A: ** (toxicities less than 25 μg/mL are represented by **)

Q: For `CN(C)c1cc(NC(=O)OCC(C)(C)C)c(O)c2c1C[C@@]1(N)C[C@@]3(N)[C@H](N(C)C)C(O)=C(C(N)=O)C(=O)[C@@]3(C#N)C(O)=C1C2=O` [DG], which “In Vitro Cytotoxicity” value is on record?
A: ** (toxicities less than 25 μg/mL are represented by **)

Q: With `CN(C)[C@@H]1C(O)=C(C(N)=O)C(=O)[C@@]2(C#N)C(O)=C3C(=O)c4c(O)cccc4[C@H](CSCc4ccccc4)[C@@]3(N)[C@H](O)[C@@]12N` [DH] as the compound, how does the “In Vitro Cytotoxicity” value read?
A: ** (toxicities less than 25 μg/mL are represented by **)

Q: `C#Cc1cc(N(C)C)c2c(c1O)C(=O)C1=C(O)[C@]3(C#N)C(=O)C(C(N)=O)=C(O)[C@@H](N(C)C)[C@]3(N)C[C@]1(N)C2` [DI] was tested. Which “In Vitro Cytotoxicity” value did it give?
A: ** (toxicities less than 25 μg/mL are represented by **)

Q: `CCOC(=O)C(C)(/N=N/c1ccc2c(c1O)C(=O)C1=C(O)[C@]3(C#N)C(=O)C(C(N)=O)=C(O)[C@@H](N(C)C)[C@]3(N)[C@@H](O)[C@]1(N)[C@H]2N)C(=O)OCC` [DK] was tested. Which “In Vitro Cytotoxicity” value did it give?
A: ** (toxicities less than 25 μg/mL are represented by **)

Q: Which “In Vitro Cytotoxicity” value does the source give for `CCCCOc1ccc(O)c2c1C[C@@]1(N)C[C@@]3(N)[C@H](N(C)C)C(O)=C(C(N)=O)C(=O)[C@@]3(C#N)C(O)=C1C2=O` [DL] here?
A: ** (toxicities less than 25 μg/mL are represented by **)

Q: How did the “In Vitro Cytotoxicity” value turn out when `CN(C)[C@@H]1C(O)=C(C(N)=O)C(=O)[C@@]2(C#N)C(O)=C3C(=O)c4c(O)ccc(-c5ccc(Cl)cc5)c4C[C@@]3(N)C[C@@]12N` [DM] was run?
A: ** (toxicities less than 25 μg/mL are represented by **)

Q: Which “In Vitro Cytotoxicity” value does the source give for `CN(C)c1cc(NC(=O)OC(C)(C)C)c(O)c2c1C[C@@]1(N)C[C@@]3(N)[C@H](N(C)C)C(O)=C(C(N)=O)C(=O)[C@@]3(C#N)C(O)=C1C2=O` [DN] here?
A: ** (toxicities less than 25 μg/mL are represented by **)

Q: With `CN(C)c1cc(C2C=CCC2)c(O)c2c1C[C@@]1(N)C[C@@]3(N)[C@H](N(C)C)C(O)=C(C(N)=O)C(=O)[C@@]3(C#N)C(O)=C1C2=O` (stereo partly drawn) [DO] as the compound, how does the “In Vitro Cytotoxicity” value read?
A: ** (toxicities less than 25 μg/mL are represented by **)

Q: `CN(C)[C@@H]1C(O)=C(C(N)=O)C(=O)[C@@]2(C#N)C(O)=C3C(=O)c4c(O)cccc4/C(=C\c4ccc5ccccc5c4)[C@@]3(N)[C@H](O)[C@@]12N` [DQ] was tested. Which “In Vitro Cytotoxicity” value did it give?
A: ** (toxicities less than 25 μg/mL are represented by **)

Q: `CN(C)[C@@H]1C(O)=C(C(N)=O)C(=O)[C@@]2(C#N)C(O)=C3C(=O)c4c(O)cccc4/C(=C\c4cc(F)cc(F)c4)[C@@]3(N)[C@H](O)[C@@]12N` [DR] was tested. Which “In Vitro Cytotoxicity” value did it give?
A: * (toxicities greater than >25 μg/ml are represented by *)

Q: With `CN(C)[C@@H]1C(O)=C(C(N)=O)C(=O)[C@@]2(C#N)C(O)=C3C(=O)c4c(O)cccc4/C(=C\c4ccc(F)cc4)[C@@]3(N)[C@H](O)[C@@]12N` [DS] as the compound, how does the “In Vitro Cytotoxicity” value read?
A: ** (toxicities less than 25 μg/mL are represented by **)

Q: With `CN(C)[C@@H]1C(O)=C(C(N)=O)C(=O)[C@@]2(C#N)C(O)=C3C(=O)c4c(ccc(Nc5ccc(-c6ccccc6)s5)c4O)[C@H](N)[C@@]3(N)[C@H](O)[C@@]12N` [DT] as the compound, how does the “In Vitro Cytotoxicity” value read?
A: ** (toxicities less than 25 μg/mL are represented by **)

Q: How did the “In Vitro Cytotoxicity” value turn out when `CCN(CC)c1ccc(-c2csc(Nc3ccc4c(c3O)C(=O)C3=C(O)[C@]5(C#N)C(=O)C(C(N)=O)=C(O)[C@@H](N(C)C)[C@]5(N)[C@@H](O)[C@]3(N)[C@H]4O)n2)cc1` [DU] was run?
A: ** (toxicities less than 25 μg/mL are represented by **)

Q: Which “In Vitro Cytotoxicity” value does the source give for `CN(C)[C@@H]1C(O)=C(C(N)=O)C(=O)[C@@]2(C#N)C(O)=C3C(=O)c4c(ccc(Nc5nc(-c6cccc([N+](=O)O)c6)cs5)c4O)[C@H](O)[C@@]3(N)[C@H](O)[C@@]12N` [DV] here?
A: ** (toxicities less than 25 μg/mL are represented by **)

Q: How did the “In Vitro Cytotoxicity” value turn out when `Cc1sc(Nc2ccc3c(c2O)C(=O)C2=C(O)[C@]4(C#N)C(=O)C(C(N)=O)=C(O)[C@@H](N(C)C)[C@]4(N)[C@@H](O)[C@]2(N)[C@H]3O)nc1-c1ccccc1` [DW] was run?
A: ** (toxicities less than 25 μg/mL are represented by **)

Q: For `CN(C)[C@@H]1C(O)=C(C(N)=O)C(=O)[C@@]2(C#N)C(O)=C3C(=O)c4c(ccc(Nc5nc(C6C7CC8CC(C7)CC6C8)cs5)c4O)[C@H](O)[C@@]3(N)[C@H](O)[C@@]12N` (stereo partly drawn) [DX], which “In Vitro Cytotoxicity” value is on record?
A: ** (toxicities less than 25 μg/mL are represented by **)

Q: `CN(C)[C@@H]1C(O)=C(C(N)=O)C(=O)[C@@]2(C#N)C(O)=C3C(=O)c4c(ccc(-c5ccco5)c4O)[C@H](O)[C@@]3(N)[C@H](O)[C@@]12N` [DY] was tested. Which “In Vitro Cytotoxicity” value did it give?
A: ** (toxicities less than 25 μg/mL are represented by **)

Q: `CN(C)c1cc(-c2ccco2)c(O)c2c1C[C@@]1(N)C[C@@]3(N)[C@H](N(C)C)C(O)=C(C(N)=O)C(=O)[C@@]3(C#N)C(O)=C1C2=O` [DZ] was tested. Which “In Vitro Cytotoxicity” value did it give?
A: ** (toxicities less than 25 μg/mL are represented by **)

Q: How did the “In Vitro Cytotoxicity” value turn out when `COc1ccc(-c2cc(N(C)C)c3c(c2O)C(=O)C2=C(O)[C@]4(C#N)C(=O)C(C(N)=O)=C(O)[C@@H](N(C)C)[C@]4(N)C[C@]2(N)C3)cc1` [EA] was run?
A: ** (toxicities less than 25 μg/mL are represented by **)

Q: Which “In Vitro Cytotoxicity” value does the source give for `CN(C)[C@@H]1C(O)=C(C(N)=O)C(=O)[C@@]2(C#N)C(O)=C3C(=O)c4c(ccc(Nc5nc(-c6ccc(F)cc6)cs5)c4O)C[C@@]3(N)C[C@@]12N` [EB] here?
A: * (toxicities greater than >25 μg/ml are represented by *)

Q: How did the “In Vitro Cytotoxicity” value turn out when `CN(C)[C@@H]1C(O)=C(C(N)=O)C(=O)[C@@]2(C#N)C(O)=C3C(=O)c4c(O)ccc(OC5=CC(c6cccc([N+](=O)O)c6)=CC5)c4C[C@@]3(N)C[C@@]12N` [EC] was run?
A: * (toxicities greater than >25 μg/ml are represented by *)

Q: For `CN(C)[C@@H]1C(O)=C(C(N)=O)C(=O)[C@@]2(C#N)C(O)=C3C(=O)c4c(ccc(Nc5nc(-c6cccc([N+](=O)O)c6)cs5)c4O)C[C@@]3(N)C[C@@]12N` [ED], which “In Vitro Cytotoxicity” value is on record?
A: ** (toxicities less than 25 μg/mL are represented by **)

Q: `COC(=O)c1ccc(-c2ccc(O)c3c2C[C@@]2(N)C[C@@]4(N)[C@H](N(C)C)C(O)=C(C(N)=O)C(=O)[C@@]4(C#N)C(O)=C2C3=O)cc1` [EF] was tested. Which “In Vitro Cytotoxicity” value did it give?
A: ** (toxicities less than 25 μg/mL are represented by **)

Q: Which “In Vitro Cytotoxicity” value does the source give for `CN(C)c1cc(-c2cccc([N+](=O)O)c2)c(O)c2c1C[C@@]1(N)C[C@@]3(N)[C@H](N(C)C)C(O)=C(C(N)=O)C(=O)[C@@]3(C#N)C(O)=C1C2=O` [EG] here?
A: ** (toxicities less than 25 μg/mL are represented by **)

Q: For `CN(C)c1cc(-c2ccc3c(c2)OCO3)c(O)c2c1C[C@@]1(N)C[C@@]3(N)[C@H](N(C)C)C(O)=C(C(N)=O)C(=O)[C@@]3(C#N)C(O)=C1C2=O` [EH], which “In Vitro Cytotoxicity” value is on record?
A: ** (toxicities less than 25 μg/mL are represented by **)

Q: How did the “In Vitro Cytotoxicity” value turn out when `CN(C)c1ccc(-c2ccc(O)c3c2C[C@@]2(N)C[C@@]4(N)[C@H](N(C)C)C(O)=C(C(N)=O)C(=O)[C@@]4(C#N)C(O)=C2C3=O)cc1` [EM] was run?
A: ** (toxicities less than 25 μg/mL are represented by **)

Q: `CN(C)[C@@H]1C(O)=C(C(N)=O)C(=O)[C@@]2(C#N)C(O)=C3C(=O)c4c(O)ccc(-c5ccc6c(c5)OCO6)c4C[C@@]3(N)C[C@@]12N` [EO] was tested. Which “In Vitro Cytotoxicity” value did it give?
A: ** (toxicities less than 25 μg/mL are represented by **)

Q: For `CN(C)[C@@H]1C(O)=C(C(N)=O)C(=O)[C@@]2(C#N)C(O)=C3C(=O)c4c(O)ccc(-c5ccoc5)c4C[C@@]3(N)C[C@@]12N` [EP], which “In Vitro Cytotoxicity” value is on record?
A: ** (toxicities less than 25 μg/mL are represented by **)
